Assay: all-hydrocarbon stapling by ring-closing olefin metathesis between S5/S5 (i,i+4) or R8/S5 (i,i+7) olefinic residues, Grubbs 1st-generation catalyst (10 mM in DCE per text; 6 mM per schemes), 2 x 2 h, on Rink Amide MBHA resin
Details: the molecule shown is the open-chain precursor, 35.0 °C, 60 steps
[1] = 21-membered ring, 1,2-dichloroethane, 4.0 h

Compound | ring closure, overall yield [1] | further results
C=CCCC[C@](C)(NC(=O)[C@H](CCCCNC(=O)OC(C)(C)C)NC(=O)[C@@H](NC(=O)[C@H](CCC(=O)OC(C)(C)C)NC(=O)[C@](C)(CCCC=C)NC(=O)[C@H](COC(C)(C)C)NC(=O)[C@H](CC(C)C)NC(=O)[C@H](CCCCNC(=O)OC(C)(C)C)NC(=O)[C@@H](NC(=O)OCC1c2ccccc2-c2ccccc21)[C@@H](C)CC)[C@@H](C)OC(C)(C)C)C(=O)N[C@@H](CC(=O)NC(c1ccccc1)(c1ccccc1)c1ccccc1)C(=O)N[C@@H](CC(C)C)C(=O)N[C@@H](CCCCNC(=O)OC(C)(C)C)C(=O)N[C@@H](CCCCNC(=O)OC(C)(C)C)C(=O)N[C@H](C(=O)N[C@@H](CC(C)C)C(=O)N[C@@H](CCCCNC(=O)OC(C)(C)C)C(=O)NCC(=O)N[C@@H](C)C(=O)N[C@H](C(=O)N[C@@H](CCCCNC(=O)OC(C)(C)C)C(=O)NCC(=O)N[C@@H](C)C(=O)N[C@H](C(=O)N[C@@H](C)C(=O)N[C@H](C(=O)N[C@@H](C)C(=O)N[C@@H](CCCCNC(=O)OC(C)(C)C)C(=O)N[C@@H](CCSC)C(=O)N[C@H](C(N)=O)C(C)C)C(C)C)[C@@H](C)CC)[C@@H](C)CC)C(C)C | 11.4% | 
C=CCCC[C@](C)(NC(=O)CNC(=O)[C@H](CCCCNC(=O)OC(C)(C)C)NC(=O)[C@@H](NC(=O)[C@](C)(CCCC=C)NC(=O)CNC(=O)[C@H](CCCCNC(=O)OC(C)(C)C)NC(=O)[C@H](CC(C)C)NC(=O)[C@@H](NC(=O)[C@H](CCCCNC(=O)OC(C)(C)C)NC(=O)[C@H](CCCCNC(=O)OC(C)(C)C)NC(=O)[C@H](CC(C)C)NC(=O)[C@H](CC(=O)NC(c1ccccc1)(c1ccccc1)c1ccccc1)NC(=O)[C@H](CC(=O)OC(C)(C)C)NC(=O)[C@H](CCCCNC(=O)OC(C)(C)C)NC(=O)[C@@H](NC(=O)[C@H](CCC(=O)OC(C)(C)C)NC(=O)[C@@H]1CCCN1C(=O)[C@H](COC(C)(C)C)NC(=O)[C@H](CC(C)C)NC(=O)[C@H](CCCCNC(=O)OC(C)(C)C)NC(=O)[C@@H](NC(=O)OCC1c2ccccc2-c2ccccc21)[C@@H](C)CC)[C@@H](C)OC(C)(C)C)C(C)C)[C@@H](C)CC)C(=O)N[C@H](C(=O)N[C@@H](C)C(=O)N[C@H](C(=O)N[C@@H](C)C(=O)N[C@@H](CCCCNC(=O)OC(C)(C)C)C(=O)N[C@@H](CCSC)C(=O)N[C@H](C(N)=O)C(C)C)C(C)C)[C@@H](C)CC | 19.9% | 
C=CCCC[C@](C)(NC(=O)[C@@H](NC(=O)[C@H](C)NC(=O)CNC(=O)[C@H](CCCCNC(=O)OC(C)(C)C)NC(=O)[C@H](CC(C)C)NC(=O)[C@@H](NC(=O)[C@H](CCCCNC(=O)OC(C)(C)C)NC(=O)[C@H](CCCCNC(=O)OC(C)(C)C)NC(=O)[C@H](CC(C)C)NC(=O)[C@H](CC(=O)NC(c1ccccc1)(c1ccccc1)c1ccccc1)NC(=O)[C@H](CC(=O)OC(C)(C)C)NC(=O)[C@H](CCCCNC(=O)OC(C)(C)C)NC(=O)[C@@H](NC(=O)[C@H](CCC(=O)OC(C)(C)C)NC(=O)[C@@H]1CCCN1C(=O)[C@H](COC(C)(C)C)NC(=O)[C@H](CC(C)C)NC(=O)[C@H](CCCCNC(=O)OC(C)(C)C)NC(=O)[C@@H](NC(=O)OCC1c2ccccc2-c2ccccc21)[C@@H](C)CC)[C@@H](C)OC(C)(C)C)C(C)C)[C@@H](C)CC)C(=O)NCC(=O)N[C@@H](C)C(=O)N[C@H](C(=O)N[C@@](C)(CCCC=C)C(=O)N[C@H](C(=O)N[C@@H](C)C(=O)N[C@@H](CCCCNC(=O)OC(C)(C)C)C(=O)N[C@@H](CCSC)C(=O)N[C@H](C(N)=O)C(C)C)C(C)C)[C@@H](C)CC | 14.1% | 
C=CCCC[C@](C)(NC(=O)CNC(=O)[C@H](CCCCNC(=O)OC(C)(C)C)NC(=O)[C@@H](NC(=O)[C@H](C)NC(=O)CNC(=O)[C@H](CCCCNC(=O)OC(C)(C)C)NC(=O)[C@H](CC(C)C)NC(=O)[C@@H](NC(=O)[C@H](CCCCNC(=O)OC(C)(C)C)NC(=O)[C@H](CCCCNC(=O)OC(C)(C)C)NC(=O)[C@H](CC(C)C)NC(=O)[C@H](CC(=O)NC(c1ccccc1)(c1ccccc1)c1ccccc1)NC(=O)[C@H](CC(=O)OC(C)(C)C)NC(=O)[C@H](CCCCNC(=O)OC(C)(C)C)NC(=O)[C@@H](NC(=O)[C@H](CCC(=O)OC(C)(C)C)NC(=O)[C@@H]1CCCN1C(=O)[C@H](COC(C)(C)C)NC(=O)[C@H](CC(C)C)NC(=O)[C@H](CCCCNC(=O)OC(C)(C)C)NC(=O)[C@@H](NC(=O)OCC1c2ccccc2-c2ccccc21)[C@@H](C)CC)[C@@H](C)OC(C)(C)C)C(C)C)[C@@H](C)CC)C(=O)N[C@H](C(=O)N[C@@H](C)C(=O)N[C@H](C(=O)N[C@@](C)(CCCC=C)C(=O)N[C@@H](CCCCNC(=O)OC(C)(C)C)C(=O)N[C@@H](CCSC)C(=O)N[C@H](C(N)=O)C(C)C)C(C)C)[C@@H](C)CC | 13.1% | 
C=CCCCCCC[C@@](C)(NC(=O)[C@@H](NC(=O)[C@H](C)NC(=O)CNC(=O)[C@H](CCCCNC(=O)OC(C)(C)C)NC(=O)[C@H](CC(C)C)NC(=O)[C@@H](NC(=O)[C@H](CCCCNC(=O)OC(C)(C)C)NC(=O)[C@H](CCCCNC(=O)OC(C)(C)C)NC(=O)[C@H](CC(C)C)NC(=O)[C@H](CC(=O)NC(c1ccccc1)(c1ccccc1)c1ccccc1)NC(=O)[C@H](CC(=O)OC(C)(C)C)NC(=O)[C@H](CCCCNC(=O)OC(C)(C)C)NC(=O)[C@@H](NC(=O)[C@H](CCC(=O)OC(C)(C)C)NC(=O)[C@@H]1CCCN1C(=O)[C@H](COC(C)(C)C)NC(=O)[C@H](CC(C)C)NC(=O)[C@H](CCCCNC(=O)OC(C)(C)C)NC(=O)[C@@H](NC(=O)OCC1c2ccccc2-c2ccccc21)[C@@H](C)CC)[C@@H](C)OC(C)(C)C)C(C)C)[C@@H](C)CC)C(=O)NCC(=O)N[C@@H](C)C(=O)N[C@H](C(=O)N[C@@H](C)C(=O)N[C@H](C(=O)N[C@@H](C)C(=O)N[C@@](C)(CCCC=C)C(=O)N[C@@H](CCSC)C(=O)N[C@H](C(N)=O)C(C)C)C(C)C)[C@@H](C)CC |  | ring closure, overall yield (33-membered ring, 1,2-dichloroethane, 4.0 h): 7.25%
C=CCCC[C@](C)(NC(=O)[C@H](CC(=O)OC(C)(C)C)NC(=O)[C@H](CCCCNC(=O)OC(C)(C)C)NC(=O)[C@@H](NC(=O)[C@](C)(CCCC=C)NC(=O)[C@@H]1CCCN1C(=O)[C@H](COC(C)(C)C)NC(=O)[C@H](CC(C)C)NC(=O)[C@H](CCCCNC(=O)OC(C)(C)C)NC(=O)[C@@H](NC(=O)OCC1c2ccccc2-c2ccccc21)[C@@H](C)CC)[C@@H](C)OC(C)(C)C)C(=O)N[C@@H](CC(C)C)C(=O)N[C@@H](CCCCNC(=O)OC(C)(C)C)C(=O)N[C@@H](CCCCNC(=O)OC(C)(C)C)C(=O)N[C@H](C(=O)N[C@@H](CC(C)C)C(=O)N[C@@H](CCCCNC(=O)OC(C)(C)C)C(=O)NCC(=O)N[C@@H](C)C(=O)N[C@H](C(=O)N[C@@H](CCCCNC(=O)OC(C)(C)C)C(=O)NCC(=O)N[C@@H](C)C(=O)N[C@H](C(=O)N[C@@H](C)C(=O)N[C@H](C(=O)N[C@@H](C)C(=O)N[C@@H](CCCCNC(=O)OC(C)(C)C)C(=O)N[C@@H](CCSC)C(=O)N[C@H](C(N)=O)C(C)C)C(C)C)[C@@H](C)CC)[C@@H](C)CC)C(C)C | 6.43% | 
final: H-I-K-L-S-P-[S5]-T-K-D-[S5]-L-K-K-V-L-K-G-[S5]-I-K-G-[S5]-I-A-V-A-K-M-V-NH2; 1st RCM on Fmoc-[S5]-I-K-G-[S5]-I-A-V-A-K-M-V-resin, 2nd RCM on Fmoc-[S5]-T-K-D-[S5]-L-K-K-V-L-K-G-[S5]-I-K-G-[S5]-I-A-V-A-K-M-V-resin (C-terminal S5 pair already stapled) |  | ring closure, overall yield (21-membered ring, 1,2-dichloroethane): 5.43%

Source: PMC9081086, “Stapling strategy enables improvement of antitumor activity and proteolytic stability of host-defense peptide hymenochirin-1B” (RSC Advances, 2018)
